Measured values: patent US20250388597A1, “BIFUNCTIONAL PHOTOCROSSLINKING PROBES FOR COVALENT CAPTURE OF PROTEIN-NUCLEIC ACID COMPLEXES IN CELLS” (UNIVERSITY OF SOUTHERN CALIFORNIA, priority 2022, published 2025)

Target: T1, MEF2A/DNA complex (Homo sapiens, UniProt Q02078)
T1 construct: human MEF2A DBD (residues 2-95); made in house
T1 sequence (Q02078 2-95): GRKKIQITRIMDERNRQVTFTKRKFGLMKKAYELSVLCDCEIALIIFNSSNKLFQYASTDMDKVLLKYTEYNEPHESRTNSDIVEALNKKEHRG
Assay: In vitro photo-crosslinking of assembled MEF2/DNA complex, read on denaturing SDS/urea gel or agarose gel
Format: biochemical
Conditions: for formation of covalent MEF2/DNA crosslinked complex: probe + UV, denaturing gel
Source text: In vitro assays have confirmed the success and the efficiency of the demo probe (AMT-LC-SDA) in crosslinking double strand DNA of various contents and DNA-binding protein human myocyte enhancer factor 2A (MEF2A) (1-95 aa) (FIG. 5C-FIG. 5E). The solid crosslinking is confirmed for the probe with UV photo crosslinking conditions by denaturing or digestive approaches such as running with 8.3 M urea gel, SDS gel, combined with sample with overnight digestion of proteinase K at 65 Celsius and denatured at high temperature of 95 Celsius with SDS loading dye. […] Under these harsh evaluation conditions, the protein got digested on the crosslinking complex thoroughly, yet the remaining crosslinked amino acids residuals still have made the DNA to be in a larger size and shifted clearly compared to other controls, which is indicated by the bold shaped arrow. Agarose gel was also used for its bigger pore size to estimate the crosslinking efficiency (UV 2 hrs), estimated by the amount of the left free DNA, our probe has reached around 30-60% efficiency (FIG. 5E), which is much higher than the UV-initiated protein DNA crosslinking without the use of a probe (10-20%) as reported in Nature Communications, volume 11, Article number: 3019 (2020). […] This further supports the idea of applying this probe for replacement of formaldehyde, it crosslinks the protein only within the proximity of nucleic acids, thereby largely reducing the random protein-protein crosslinking noise and helps to preserve the native state of protein epitopes.
The BFPX probe 4AMT-LC-SDA was synthesized with good yield by the NHS-amine chemistry using psoralen and diazirine derivatives (FIG. 5A, FIG. 5B). To test its photo crosslinking ability, human transcription factor MEF2A (the MADS-box/MEF2 domain) and double strand DNA containing a MEF2 binding site were used. We first used electrophoresis mobility shift assay (EMSA) to validate the activity of the purified recombinant MEF2A DNA-binding domain. After finding out the optimal protein to DNA ratio, the in vitro assembled MEF2/DNA complex was then subject to photocrosslinking in the presence or absence of the 4AMT-LC-SDA probe with or without UV illumination. Multiple other control experiments were carried out in parallel to test the specificity of photocrosslinking between the DNA and MEF2. Specifically, parameters such as protein/DNA amounts (1:[…]), ratio, UV time (10 m to 4 hrs), wavelength (320 to 360 nm), LV source (mercury long lamp, LED) and their distance to the reaction mixture have been optimized along the course. The MEF2 Protein and DNA were incubated first to mimic an in vivo binding mode and stoichiometry, and then the mixture was incubated with our 4AMT-LC-SDA probe to undergo UV illumination. The results were evaluated by running denaturing gels (SDS in FIG. 5D, or Urea in FIG. 5C) against the high temperature denatured reaction mixtures and checking the respective protein (silver stain) or DNA (FAM label) signals. To further rule out any other possible false positiveness during loading, proteinase K digestion was applied to all the samples including the negative controls with SDS at 65 degrees.

crosslinking efficiency based on the DNA signal (MEF2/DNA, FIG. 8C lane 3 (10 μM probe) vs lane 1) | low probe concentration at which a significant amount of crosslinked protein complex was observed (MEF2/DNA, FIG. 7 lane 7, UV 365 nm) [µM] | crosslinking efficiency (percentage of native protein-DNA complex being covalently crosslinked) (MEF2/DNA, FIG. 7 lane 5 (12.5 μM probe) vs lanes 1-3, free DNA FAM signal, UV 365 nm) | UV illumination time at which crosslinked complex was visible (MEF2/DNA, probe 100 μM) [s] | UV illumination time at which crosslinking reached plateau (MEF2/DNA, probe 100 μM, plateau around 100 seconds and 5 min time points) | SMILES | formation of covalent MEF2/DNA crosslinked complex
more than 90% |  |  |  |  | C#CCCC1(CCNC(=O)CCOCCOCCOCCC(=O)NCCNC(=O)CCCOc2c3occc3cc3ccc(=O)oc23)N=N1 [SPB-PEG3-AAD] | highly efficient crosslinking
 | 0.125 | 80-90% | 3 | around 100 seconds | C#CCCC1(CCNC(=O)CCCOc2c3occc3cc3ccc(=O)oc23)N=N1 [SPB-AAD, N-(2-(3-(but-3-yn-1-yl)-3H-diazirin-3-yl)ethyl)-4-((7-oxo-7H-furo[3,2-g]chromen-9-yl)oxy)butanamide] | formation of complexes that run as larger molecular species than both free protein and DNA
